Molecules are shown by their SMILES. Toxic doses and inconclusive results are not listed.

In the test the test system is L1210 leukemia ip in BDF1 mice, survival T/C. In words: NCI In Vivo Anticancer Drug Screen. Data for tumor model L1210 Leukemia (intraperitoneal) in B6D2F1 (BDF1) mice. The conditions noted are these: endpoint: mean survival time, higher = longer survival. The procedure, abridged: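 Tumor was transplanted into mice, which were then dosed with test compound or vehicle alone. Survival was recorded for each group, and the treated figure was expressed relative to the control figure.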

Where [1] appears, read: dose: 100.0 mg/kg/injection, schedule: Q01DX001 (ip), vehicle: Klucel (hydroxypropylcellulose) (HPC).
The mark [2] stands for this setting: dose: 200.0 mg/kg/injection, schedule: Q01DX001 (ip), vehicle: Klucel (hydroxypropylcellulose) (HPC).
Where [3] appears, read: dose: 100.0 mg/kg/injection, schedule: Q04DX003 (ip), vehicle: Klucel (hydroxypropylcellulose) (HPC).
Setting [4] is: dose: 200.0 mg/kg/injection, schedule: Q04DX003 (ip), vehicle: Klucel (hydroxypropylcellulose) (HPC).
Where [5] appears, read: dose: 400.0 mg/kg/injection, schedule: Q04DX003 (ip), vehicle: Klucel (hydroxypropylcellulose) (HPC).

`Cc1nn(C)c(N)c1C#N`: the T/C runs as follows: (dose: 25.0 mg/kg/injection, schedule: Q01DX009 (ip), vehicle: saline) 97 % of control; (dose: 50.0 mg/kg/injection, schedule: Q01DX009 (ip), vehicle: saline) 97 % of control; under setting [1], 107 % of control; (dose: 100.0 mg/kg/injection, schedule: Q01DX009 (ip), vehicle: saline) 111 % of control; under setting [2], 104 % of control; (dose: 200.0 mg/kg/injection, schedule: Q01DX009 (ip), vehicle: saline) 106 % of control. In addition, the T/C is 104 % of control (dose: 400.0 mg/kg/injection, schedule: Q01DX001 (ip), vehicle: Klucel (hydroxypropylcellulose) (HPC)) and 100 % of control (dose: 400.0 mg/kg/injection, schedule: Q01DX009 (ip), vehicle: saline).
For the compound `COc1ccccc1N=Nc1c(O)n(-c2ccccc2C)c(=S)n(-c2ccccc2)c1=O`, the T/C is, setting by setting: (dose: 25.0 mg/kg/injection, schedule: Q04DX003 (ip), vehicle: Klucel (hydroxypropylcellulose) (HPC)) 107 % of control; (dose: 50.0 mg/kg/injection, schedule: Q04DX003 (ip), vehicle: Klucel (hydroxypropylcellulose) (HPC)) 105 % of control; under setting [1], 101 % of control; under setting [3], 107 % of control; under setting [2], 95 % of control.
Regarding `OCC1OC(n2cnc3c(=S)nc(NO)[nH]c32)C(O)C1O` (stereo not given), the T/C by setting is: (dose: 12.5 mg/kg/injection, schedule: Q01DX005 (ip), vehicle: saline) 165 % of control; (dose: 50.0 mg/kg/injection, schedule: Q01DX005 (ip), vehicle: saline) 88 % of control; (dose: 100.0 mg/kg/injection, schedule: Q01DX005 (ip), vehicle: saline) 107 % of control.
`COc1ccc(OC)c(NC(=O)C2CC2)c1`: the T/C by setting is: (dose: 100.0 mg/kg/injection, schedule: Q04DX003 (ip), vehicle: saline) 94 % of control; (dose: 200.0 mg/kg/injection, schedule: Q04DX003 (ip), vehicle: saline) 99 % of control; (dose: 400.0 mg/kg/injection, schedule: Q04DX003 (ip), vehicle: saline) 103 % of control.
On to `c1ccc(-c2nc3ccccc3nc2-c2ccccc2)cc1`, for which the T/C is 96 % of control under setting [3]; 100 % of control (dose: 100.0 mg/kg/injection, schedule: Q04DX003 (ip), vehicle: saline with Tween-80); 86 % of control under setting [4]; 100 % of control (dose: 200.0 mg/kg/injection, schedule: Q04DX003 (ip), vehicle: saline with Tween-80); 90 % of control under setting [5]; 100 % of control (dose: 400.0 mg/kg/injection, schedule: Q04DX003 (ip), vehicle: saline with Tween-80).
In the case of `NC(=O)c1ccc[n+]([O-])c1`, the T/C reads like this: (dose: 100.0 mg/kg/injection, schedule: Q01DX009 (ip), vehicle: Klucel (hydroxypropylcellulose) (HPC)) 104 % of control; under setting [3], 100 % of control; (dose: 200.0 mg/kg/injection, schedule: Q01DX009 (ip), vehicle: Klucel (hydroxypropylcellulose) (HPC)) 100 % of control; under setting [4], 100 % of control; (dose: 400.0 mg/kg/injection, schedule: Q01DX009 (ip), vehicle: Klucel (hydroxypropylcellulose) (HPC)) 98 % of control; under setting [5], 94 % of control.
Turning to `CN1CCN=C1c1ccc(NC(=O)c2ccc(C(=O)Nc3ccc(C4=NCCN4C)cc3)c(N)c2)cc1`, the T/C was 242 % of control (dose: 3.0 mg/kg/injection, schedule: Q01DX Z (ip), vehicle: carboxymethylcellulose (CMC)); 159 % of control (dose: 6.0 mg/kg/injection, schedule: Q01DX Z (ip), vehicle: carboxymethylcellulose (CMC)); 98 % of control (dose: 6.0 mg/kg/injection, schedule: Q01DX Z (oral), vehicle: water); 103 % of control (dose: 12.0 mg/kg/injection, schedule: Q01DX Z (ip), vehicle: carboxymethylcellulose (CMC)); 95 % of control (dose: 12.0 mg/kg/injection, schedule: Q01DX Z (oral), vehicle: water); 98 % of control (dose: 24.0 mg/kg/injection, schedule: Q01DX Z (oral), vehicle: water). Also, the T/C (dose: 48.0 mg/kg/injection, schedule: Q01DX Z (oral), vehicle: water) is 101 % of control.
Regarding `CC(=O)N1C(=O)C(Cl)C(Cl)C(=O)N1C(C)=O` (stereo not given), the T/C was 89 % of control under setting [3] and 89 % of control under setting [4].
Regarding `CCOC(=O)CNC(=O)OCCOc1ccccc1Cl`, the T/C reads like this: (dose: 100.0 mg/kg/injection, schedule: Q01DX009 (ip), vehicle: saline with Tween-80) 94 % of control; (dose: 200.0 mg/kg/injection, schedule: Q01DX009 (ip), vehicle: saline with Tween-80) 98 % of control; (dose: 400.0 mg/kg/injection, schedule: Q01DX009 (ip), vehicle: saline with Tween-80) 100 % of control.
For `CS(=O)(=O)CC1OC(n2nnc3c(N)ncnc32)C(O)C1O` (stereo not given), the T/C is 94 % of control (dose: 50.0 mg/kg/injection, schedule: Q01DX001 (ip), vehicle: saline with Tween-80); 102 % of control (dose: 100.0 mg/kg/injection, schedule: Q01DX001 (ip), vehicle: saline with Tween-80); 94 % of control (dose: 200.0 mg/kg/injection, schedule: Q01DX001 (ip), vehicle: saline with Tween-80).
With `COc1cc2ccc(CC3NCCc4cc5c(cc43)OCO5)cc2cc1OC` (stereo not given), the T/C (dose: 100.0 mg/kg/injection, schedule: Q01DX009 (ip), vehicle: saline sonified) was 93 % of control; the T/C (dose: 100.0 mg/kg/injection, schedule: Q04DX003 (ip), vehicle: saline sonified) is 88 % of control; the T/C (dose: 200.0 mg/kg/injection, schedule: Q01DX009 (ip), vehicle: saline sonified) was 98 % of control; the T/C (dose: 200.0 mg/kg/injection, schedule: Q04DX003 (ip), vehicle: saline sonified) was 88 % of control; the T/C (dose: 400.0 mg/kg/injection, schedule: Q01DX009 (ip), vehicle: saline sonified) is 93 % of control; the T/C (dose: 400.0 mg/kg/injection, schedule: Q04DX003 (ip), vehicle: saline sonified) was 95 % of control.
On to `Nc1ccc(Cc2ccc(N)c(Cl)c2)cc1Cl`, for which the T/C under setting [3] was 100 % of control, the T/C under setting [4] was 91 % of control and the T/C under setting [5] is 100 % of control.
